#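 Dose response: 5 concentrations. Exposure: 48 h. Format: 96-well plates. Endpoint: linear interpolation; highest concentration if not reached. At the TGI there is no net growth.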
# Legend:
# Assay in all cases: DTP human tumour cell line panel, 48 h
# HOP-92 NSCLC = system: HOP-92 NSCLC
# HCC-2998 colon = system: HCC-2998 colon
# SF-268 CNS = system: SF-268 CNS
# A498 renal = system: A498 renal
# MOLT-4 leukemia = system: MOLT-4 leukemia
# OVCAR-3 ovarian = system: OVCAR-3 ovarian
# OVCAR-4 ovarian = system: OVCAR-4 ovarian
# IGROV1 ovarian = system: IGROV1 ovarian
# DU-145 prostate = system: DU-145 prostate
# PC-3 prostate = system: PC-3 prostate
SMILES,TGI (HOP-92 NSCLC),TGI (HCC-2998 colon),TGI (SF-268 CNS),TGI (A498 renal),TGI (MOLT-4 leukemia),TGI (OVCAR-3 ovarian),TGI (OVCAR-4 ovarian),TGI (IGROV1 ovarian),TGI (DU-145 prostate),TGI (PC-3 prostate)
c1ccc2c(c1)Cn1c-2nc2ccccc21,> 100 µM,> 100 µM,> 100 µM,> 100 µM,> 100 µM,> 100 µM,> 100 µM,> 100 µM,> 100 µM,> 100 µM
COP(=O)(OC)C1=c2c(C)noc2=C2C=COC2C1=O (stereo unspecified),> 100 µM,> 100 µM,> 100 µM,> 100 µM,> 100 µM,> 100 µM,> 100 µM,> 100 µM,> 100 µM,> 100 µM
CC(C)c1cc2c(cc1S(=O)(=O)O)[C@@]1(C)CCC[C@@](C)(C(=O)O)C1CC2 (stereo partly specified),> 100 µM,> 100 µM,> 100 µM,> 100 µM,> 100 µM,> 100 µM,> 100 µM,> 100 µM,> 100 µM,> 100 µM
CCC(=O)NCC1CCCN2CCCCC12 (stereo unspecified),> 100 µM,> 100 µM,> 100 µM,> 100 µM,> 100 µM,,> 100 µM,,> 100 µM,> 100 µM
[N-]=[N+]=NC(c1ccccc1)(c1ccccc1)c1ccccc1,32.3 µM,30.5 µM,35.7 µM,31.9 µM,44.8 µM,42.5 µM,57.9 µM,63.7 µM,36.1 µM,29.4 µM
CC(=O)c1c2c(c3ccccc3c1O)O[C@@H]1OCC[C@H]21,> 100 µM,> 100 µM,> 100 µM,> 100 µM,> 100 µM,> 100 µM,> 100 µM,> 100 µM,> 100 µM,> 100 µM
O=C(C1OC1c1ccc(Br)cc1O)C12CC3CC(CC(C3)C1)C2 (stereo unspecified),48.8 µM,47.6 µM,> 100 µM,> 100 µM,66.7 µM,84.6 µM,81.4 µM,> 100 µM,> 100 µM,58.7 µM
COC(=O)C1CC(C=[N+](C)C)=C(SC)N1C(=O)OCc1ccccc1 (stereo unspecified),> 100 µM,> 100 µM,> 100 µM,> 100 µM,> 100 µM,> 100 µM,> 100 µM,> 100 µM,> 100 µM,> 100 µM
O=C(/C=C/c1ccc2c(c1)OCO2)c1ccc(O)cc1,28.8 µM,32.1 µM,> 100 µM,38.3 µM,,28.9 µM,38.8 µM,30.2 µM,30.1 µM,29.4 µM
COc1nncc2[nH]c(-c3ccccc3)cc12,> 100 µM,> 100 µM,> 100 µM,> 100 µM,18.1 µM,> 100 µM,> 100 µM,> 100 µM,> 100 µM,> 100 µM
CC1=Nc2ccccc2OC(C)=C1N=Nc1ccc2nc(C)[nH]c2c1,> 100 µM,> 100 µM,> 100 µM,99.5 µM,> 100 µM,> 100 µM,> 100 µM,> 100 µM,> 100 µM,> 100 µM
Nn1c(-c2ccccc2)n[nH]c1=O,> 100 µM,> 100 µM,> 100 µM,> 100 µM,> 100 µM,> 100 µM,> 100 µM,> 100 µM,> 100 µM,> 100 µM
Cc1ccccc1OC(C)C(=O)NN1C(=O)CSC1c1ccccc1 (stereo unspecified),> 100 µM,> 100 µM,> 100 µM,> 100 µM,25.3 µM,> 100 µM,> 100 µM,> 100 µM,> 100 µM,> 100 µM
COc1ccc(N=NC(=Nc2ccccc2)c2ccc(N(CCC#N)CCC#N)cc2)cc1,> 100 µM,> 100 µM,> 100 µM,> 100 µM,> 100 µM,55.2 µM,> 100 µM,89.3 µM,> 100 µM,> 100 µM
CC(=O)Nn1c(=S)[nH]c2ccccc21,> 100 µM,> 100 µM,> 100 µM,> 100 µM,> 100 µM,,> 100 µM,> 100 µM,> 100 µM,> 100 µM
CC(C)=CCC[C@@H](C)c1c(O)c(O)c(C)c2nccnc12,> 94.2 µM,> 96.6 µM,> 100 µM,> 86.1 µM,> 53.1 µM,> 100 µM,> 100 µM,> 81.5 µM,> 100 µM,> 100 µM
Nc1c(-c2ccc(Cl)c(Cl)c2)c2ccc([N+](=O)[O-])cc2c(=O)n1-c1nc2ccccc2s1,2.81 µM,92.6 µM,> 39.4 µM,24.3 µM,> 100 µM,> 100 µM,> 100 µM,> 100 µM,> 100 µM,> 100 µM
CCOP(=O)(OCC)C(F)(F)c1ccc(CC(NC(=O)OC(C)(C)C)C(=O)O)cc1 (stereo unspecified),> 10 µM,> 10 µM,> 10 µM,> 10 µM,> 10 µM,> 10 µM,> 10 µM,> 10 µM,> 10 µM,> 10 µM
N#CC(Cc1ccccc1)N(CCC1=CCCCC1)C(c1ccccc1)c1ccccc1 (stereo unspecified),> 100 µM,> 100 µM,> 100 µM,> 100 µM,> 100 µM,> 100 µM,> 100 µM,> 100 µM,> 100 µM,> 100 µM
CC(=O)Nc1nc(NC(C)=O)c2[nH]c(CO)nc2n1,> 100 µM,> 100 µM,> 100 µM,> 100 µM,> 100 µM,> 100 µM,> 100 µM,> 100 µM,> 100 µM,> 100 µM
CC(=O)/C=C/C1=C(C)CCCC1(C)CC(C)C (stereo unspecified),37.7 µM,35.7 µM,> 100 µM,> 100 µM,41.5 µM,83 µM,> 100 µM,> 100 µM,> 100 µM,> 100 µM
Nn1c(Nc2ccc(S(=O)(=O)Nc3ncccn3)cc2)nnc(/C=C/c2c(O)ccc3ccccc23)c1=O,> 100 µM,57.7 µM,> 100 µM,72.4 µM,> 100 µM,55.9 µM,> 100 µM,> 100 µM,> 100 µM,> 100 µM

# From PubChem BioAssay (NCI)
